{"source": "patent US20130274174A1", "about": "“THERAPEUTIC COMBINATION OF DAPTOMYCIN AND PROTEIN SYNTHESIS INHIBITOR ANTIBIOTIC, AND METHODS OF USE” (priority 2011, published 2013)", "key": {"[1]": {"tested_on": "Staphylococcus aureus 100 (ATCC 29213)", "assay": "FIC checkerboard broth microdilution, control combinations", "format": "cell-based", "details": "ATCC29213, agent alone, repeated determinations by date", "protocol": "Test articles of stock solutions of daptomycin (Cubist, lot MCB2007) and TR-700 were prepared at 40 times the final target concentration in DMSO:water (1:1). DMSO was added first, the solutions were allowed to stand for 60 minutes and then the water was added. […] The final DMSO concentration was 2.5%. The final drug concentrations in the FIC assay plates were set to bracket the MIC value of each test article for each test organism, unless the strain was totally resistant to the test article.\nThe test organisms were originally received from clinical sources, or from the American Type Culture Collection. […] Aliquots were then frozen at −80° C.\nThe broth was prepared at 1.05× normal weight/volume to offset the 5% volume of the drugs in the final test plates.\nAntimicrob. Agents Chemother.\nThese plates were used to prepare the drug “mother plates” which provided the serial drug dilutions for the drug combination plates.\nThe “daughter plates” were loaded with 180 μL of test medium using the Multidrop 384. Then, the Multimek 96 was used to transfer 10 μL of drug solution from each well of the drug combination mother plate to each corresponding well of the daughter plate in a single step."}, "[2]": {"tested_on": "S. aureus", "details": "Locke et al. 2009; cited from earlier work"}, "[3]": {"tested_on": "S. aureus MW2 (NRS123)", "assay": "microbe, parasite or virus in culture", "format": "cell-based, Staphylococcus aureus", "details": "for MIC: Staphylococcus aureus", "protocol": "S. aureus strains MW2 (NARSA collection clinical MRSA isolate, NRS123) and ATCC 33591 (MRSA strain from the American Type Culture Collection) were cultured on Mueller-Hinton II cation adjusted (MHA) medium in 90×90 mm square petri dishes. MHA containing ¼ of the MIC value of TR-700, TR-705, LZD, TIA, CLI, TET, or VAN, TMP/SMX throughout the plate and a continuous linear gradient of DAP across the plate was used to passage MW2. ATCC 33591 was passaged with ¼ of the MIC of a subset of these drugs (TR-700, TMP/SMX, and VAN). A DAP-only control passage group was included for both strains. DAP gradients were created by pouring two layers of media as previously described (Bryson, V., et al. 1952. Microbial selection. Science 116:45-51; Locke, J. B., et al., 2009. Antimicrob. Agents Chemother. 53:5265-5274). Following each passage the leading edge of growth (i.e., most resistant cells) was resuspended in phosphate buffered saline (PBS) to an absorbance of 0.30 OD600 and a 100 μl aliquot containing ˜3.0×10^7 CFU (colony-forming units) was spread on to the proceeding passage plate. The starting maximal DAP concentration was 2 μg/ml and was increased in two-fold increments when the leading edge of growth surpassed the half way point on the plate. A glycerol stock was made from the total cell population for each culture condition for each passage. Thirty serial passages were completed for each treatment group."}, "[4]": {"tested_on": "S. aureus", "details": "co-selection with a subinhibitory concentration; Berti et al. 2012; cited from earlier work"}}, "note": "“Also recorded” adds a separate entry of the source. Like-named read-outs stand apart in the source and are kept apart here.", "data": [{"smiles": "O=C(O)[C@H]1/C(=C/CO)O[C@@H]2CC(=O)N21", "note": "[Clavulanate]", "values": [{"measurement": "MIC", "setting": "[1]", "value": 16, "unit": "µg/mL"}]}, {"smiles": "CC(=O)NC[C@H]1CN(c2ccc(N3CCOCC3)c(F)c2)C(=O)O1", "note": "[LZD, linezolid]", "values": [{"measurement": "S. aureus mutation frequency higher than for TR-700", "setting": "[2]", "value": "> 10", "unit": "fold"}, {"measurement": "MIC", "setting": "[3]; NRS123, passage 0, NRS123 WT", "value": 2, "unit": "µg/mL"}, {"measurement": "MIC", "setting": "[3]; NRS123, passage 5, selection group DAP", "value": 2, "unit": "µg/mL"}, {"measurement": "MIC", "setting": "[3]; NRS123, passage 5, selection group DAP + CLI", "value": 2, "unit": "µg/mL"}, {"measurement": "MIC", "setting": "[3]; NRS123, passage 5, selection group DAP + LZD", "value": 2, "unit": "µg/mL"}, {"measurement": "MIC", "setting": "[3]; NRS123, passage 5, selection group DAP + TET", "value": 2, "unit": "µg/mL"}, {"measurement": "MIC", "setting": "[3]; NRS123, passage 5, selection group DAP + TIA", "value": 2, "unit": "µg/mL"}, {"measurement": "MIC", "setting": "[3]; NRS123, passage 5, selection group DAP + TMP/SMX", "value": 1, "unit": "µg/mL"}, {"measurement": "MIC", "setting": "[3]; NRS123, passage 5, selection group DAP + TR-700", "value": 2, "unit": "µg/mL"}, {"measurement": "MIC", "setting": "[3]; NRS123, passage 5, selection group DAP + TR-705", "value": 2, "unit": "µg/mL"}, {"measurement": "MIC", "setting": "[3]; NRS123, passage 5, selection group DAP + VAN", "value": 1, "unit": "µg/mL"}, {"measurement": "MIC", "setting": "[3]; NRS123, passage 10, selection group DAP", "value": 2, "unit": "µg/mL"}, {"measurement": "MIC", "setting": "[3]; NRS123, passage 10, selection group DAP + CLI", "value": 2, "unit": "µg/mL"}, {"measurement": "MIC", "setting": "[3]; NRS123, passage 10, selection group DAP + LZD", "value": 2, "unit": "µg/mL"}, {"measurement": "MIC", "setting": "[3]; NRS123, passage 10, selection group DAP + TET", "value": 2, "unit": "µg/mL"}, {"measurement": "MIC", "setting": "[3]; NRS123, passage 10, selection group DAP + TIA", "value": 2, "unit": "µg/mL"}, {"measurement": "MIC", "setting": "[3]; NRS123, passage 10, selection group DAP + TMP/SMX", "value": 2, "unit": "µg/mL"}, {"measurement": "MIC", "setting": "[3]; NRS123, passage 10, selection group DAP + TR-700", "value": 2, "unit": "µg/mL"}, {"measurement": "MIC", "setting": "[3]; NRS123, passage 10, selection group DAP + TR-705", "value": 2, "unit": "µg/mL"}, {"measurement": "MIC", "setting": "[3]; NRS123, passage 10, selection group DAP + VAN", "value": 1, "unit": "µg/mL"}, {"measurement": "MIC", "setting": "[3]; NRS123, passage 15, selection group DAP", "value": 1, "unit": "µg/mL"}, {"measurement": "MIC", "setting": "[3]; NRS123, passage 15, selection group DAP + CLI", "value": 2, "unit": "µg/mL"}, {"measurement": "MIC", "setting": "[3]; NRS123, passage 15, selection group DAP + LZD", "value": 2, "unit": "µg/mL"}, {"measurement": "MIC", "setting": "[3]; NRS123, passage 15, selection group DAP + TET", "value": 1, "unit": "µg/mL"}, {"measurement": "MIC", "setting": "[3]; NRS123, passage 15, selection group DAP + TIA", "value": 2, "unit": "µg/mL"}, {"measurement": "MIC", "setting": "[3]; NRS123, passage 15, selection group DAP + TMP/SMX", "value": 2, "unit": "µg/mL"}, {"measurement": "MIC", "setting": "[3]; NRS123, passage 15, selection group DAP + TR-700", "value": 2, "unit": "µg/mL"}, {"measurement": "MIC", "setting": "[3]; NRS123, passage 15, selection group DAP + TR-705", "value": 2, "unit": "µg/mL"}, {"measurement": "MIC", "setting": "[3]; NRS123, passage 15, selection group DAP + VAN", "value": 1, "unit": "µg/mL"}, {"measurement": "MIC", "setting": "[3]; NRS123, passage 20, selection group DAP", "value": 2, "unit": "µg/mL"}, {"measurement": "MIC", "setting": "[3]; NRS123, passage 20, selection group DAP + CLI", "value": 2, "unit": "µg/mL"}, {"measurement": "MIC", "setting": "[3]; NRS123, passage 20, selection group DAP + LZD", "value": 2, "unit": "µg/mL"}, {"measurement": "MIC", "setting": "[3]; NRS123, passage 20, selection group DAP + TET", "value": 1, "unit": "µg/mL"}, {"measurement": "MIC", "setting": "[3]; NRS123, passage 20, selection group DAP + TIA", "value": 2, "unit": "µg/mL"}, {"measurement": "MIC", "setting": "[3]; NRS123, passage 20, selection group DAP + TMP/SMX", "value": 2, "unit": "µg/mL"}, {"measurement": "MIC", "setting": "[3]; NRS123, passage 20, selection group DAP + TR-700", "value": 2, "unit": "µg/mL"}, {"measurement": "MIC", "setting": "[3]; NRS123, passage 20, selection group DAP + TR-705", "value": 2, "unit": "µg/mL"}, {"measurement": "MIC", "setting": "[3]; NRS123, passage 20, selection group DAP + VAN", "value": 1, "unit": "µg/mL"}, {"measurement": "MIC", "setting": "[3]; NRS123, passage 25, selection group DAP", "value": 1, "unit": "µg/mL"}, {"measurement": "MIC", "setting": "[3]; NRS123, passage 25, selection group DAP + CLI", "value": 2, "unit": "µg/mL"}, {"measurement": "MIC", "setting": "[3]; NRS123, passage 25, selection group DAP + LZD", "value": 1, "unit": "µg/mL"}, {"measurement": "MIC", "setting": "[3]; NRS123, passage 25, selection group DAP + TET", "value": 1, "unit": "µg/mL"}, {"measurement": "MIC", "setting": "[3]; NRS123, passage 25, selection group DAP + TIA", "value": 2, "unit": "µg/mL"}, {"measurement": "MIC", "setting": "[3]; NRS123, passage 25, selection group DAP + TMP/SMX", "value": 2, "unit": "µg/mL"}, {"measurement": "MIC", "setting": "[3]; NRS123, passage 25, selection group DAP + TR-700", "value": 2, "unit": "µg/mL"}, {"measurement": "MIC", "setting": "[3]; NRS123, passage 25, selection group DAP + TR-705", "value": 2, "unit": "µg/mL"}, {"measurement": "MIC", "setting": "[3]; NRS123, passage 25, selection group DAP + VAN", "value": 1, "unit": "µg/mL"}, {"measurement": "MIC", "setting": "[3]; NRS123, passage 30, selection group DAP", "value": 1, "unit": "µg/mL"}, {"measurement": "MIC", "setting": "[3]; NRS123, passage 30, selection group DAP + CLI", "value": 2, "unit": "µg/mL"}, {"measurement": "MIC", "setting": "[3]; NRS123, passage 30, selection group DAP + LZD", "value": 2, "unit": "µg/mL"}, {"measurement": "MIC", "setting": "[3]; NRS123, passage 30, selection group DAP + TET", "value": 1, "unit": "µg/mL"}, {"measurement": "MIC", "setting": "[3]; NRS123, passage 30, selection group DAP + TIA", "value": 2, "unit": "µg/mL"}, {"measurement": "MIC", "setting": "[3]; NRS123, passage 30, selection group DAP + TMP/SMX", "value": 2, "unit": "µg/mL"}, {"measurement": "MIC", "setting": "[3]; NRS123, passage 30, selection group DAP + TR-700", "value": 2, "unit": "µg/mL"}, {"measurement": "MIC", "setting": "[3]; NRS123, passage 30, selection group DAP + TR-705", "value": 2, "unit": "µg/mL"}, {"measurement": "MIC", "setting": "[3]; NRS123, passage 30, selection group DAP + VAN", "value": 2, "unit": "µg/mL"}, {"measurement": "MIC", "setting": "[3]; NRS123, read-out: DAP MIC by the end of the experiment (selection of DAP^ns strains), MW2, passaged with DAP alone or with co-selecting agent at ¼ MIC, CLSI breakpoint", "value": "> 1", "unit": "µg/mL"}, {"measurement": "effect on preventing the emergence of DAP^ns", "setting": "[3]; co-selection at ¼ MIC, VAN: both backgrounds", "value": "did not prevent the emergence of DAP non-susceptibility; also recorded: no effect on preventing DAP^ns"}, {"measurement": "susceptibility to the co-selecting agent in its co-selection group", "setting": "[3]; over the course of 30 passages", "value": "no increases in LZD MIC values over WT were observed"}, {"measurement": "effect on preventing the emergence of DAP^ns S. aureus", "setting": "[4]", "value": "did not have any effect on preventing the emergence of DAP^ns S. aureus"}]}]}
